Test results as given in publication PMC10914731, “Homo-BacPROTAC-induced degradation of ClpC1 as a strategy against drug-resistant mycobacteria” (Nature Communications, 2024).
≈ marks a conversion by molar mass, not a printed value. Where “and” joins values, the source holds several entries; their conditions need not be identical. Identical values can stand only once. Like-named read-outs stand apart in the source and are kept apart here. *1 amine or outer side, *2 acyl side, *3 side chain or, on linkers, in order; H or OH if unused. Where a SMILES comes first, the peptide text is derived from it. [ ]: non-standard residue; d: D form. X5 = C=CCn1cc(C[C@@H](C(=O)[*:2])N(C)[*:1])c2ccccc21; NMeLeu(5-OH,4R) = CN[C@@H](C[C@@H](C)CO)C(=O)O; Phe(βR-OMe) = CO[C@H](c1ccccc1)[C@H](N)C(=O)O; NMeL = CN[C@@H](CC(C)C)C(=O)O

Legend:
[1] = format: in vitro ADME, Rat
Method: (§1) The kinetics of compound degradation in liver microsomes is assessed in an assay with 1 µmol/l of compound and 0.5 mg/ml liver microsomes in a medium of 100 mM Tris-HCl pH 7.5, 6.5 mM MgCl2 and 1 mM NADPH at 37 °C. The reaction is stopped at multiple time points by adding acetonitrile. After centrifugation, the compound concentration is measured in the supernatants by high-performance liquid chromatography (HPLC) tandem mass spectrometry (MS/MS). The results are fitted to a first-order decay and the half-lives are converted to clearance (stated as % of the liver blood flow (%Qh)) using the well-stirred liver model.

[2] = format: in vitro ADME, Rat; remark: listed apart in the source
Method: (§2) Cryopreserved hepatocytes are incubated in an appropriate buffer system containing 50% species serum. Following an acclimation period (15–30 min) in an incubator (37 °C, 5−10% CO2, 85–95% humidity) the test compound is added to the hepatocyte suspension (pH 7.4, typical cell density of about 1 million cells/mL; final concentration of test compound is 1 µM, final DMSO concentration <0.05% v/v). The cells are incubated for up to 6 h and samples are taken at 6 different time points. Samples are then quenched with acetonitrile and pelleted by centrifugation. The remaining amount of parent compound in the supernatants is then analysed by HPLC-MS/MS. Clearance is calculated from compound half-lives using the well-stirred liver model and is converted to clearance stated as % of the liver blood flow (% Qh).

Caco-2 monolayers = experiment: in vitro
Text: (§3) Supplementary Table 1. Structure-Activity Relationships part 1 (SPR, Caco-2) […]
(§4) SPR. Mean values ± standard deviation. Footnotes indicate the number of measurements performed for the respective compound: a) n = […]
(§5) [5] Permeability across Caco-2 monolayers in P(A−B): apical to basolateral and P(B−A): basolateral to apical direction (values reported in 10-
(§6) 6 cm s-1); efflux ratio = P(B−A)/P(A−B); Int. perm: mean value of P(A−B) and P(B−A). […] Influence of Trp-Nα methylation on P(A-B) and efflux
(§7) ratio. Bold: positive influence.

in vitro = settings: human
Text: as §3, §4, §5, §6, §7

[3] = Microsomal stability, human; format: in vitro ADME
Method: as §1

[4] = format: in vitro ADME, Human
Method: as §2

[5] = Hepatocyte stability, mice; format: in vitro ADME
Method: as §2

[6] = biological target: ClpC1 NTD protein (M. tuberculosis) (Mycobacterium tuberculosis, UniProt P9WPC9); experiment: biochemical; format: binding
Mtb ATCC 35825 = experiment: microbe, parasite or virus in culture; format: cell-based
Mtb # 11291 = experiment: microbe, parasite or virus in culture; format: cell-based; settings: for MIC: read-out: MIC Mtb # 11291
Mtb # 8673 = experiment: microbe, parasite or virus in culture; format: cell-based
[7] = Mycobacterium tuberculosis, ATCC35825, mean, n = 2 well replicates
[8] = Mycobacterium tuberculosis, ATCC35825, single well replicates
[9] = Mycobacterium tuberculosis, mean, n = 2 well replicates
[10] = Mycobacterium tuberculosis, single well replicates

Chain of ClpC1 NTD protein (M. tuberculosis) (P9WPC9 1-156, looked up, natural form): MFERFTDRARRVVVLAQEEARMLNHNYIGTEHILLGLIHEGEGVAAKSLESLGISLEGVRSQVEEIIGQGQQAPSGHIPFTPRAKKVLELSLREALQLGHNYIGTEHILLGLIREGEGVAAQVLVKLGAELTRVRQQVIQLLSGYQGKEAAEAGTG

SMILES: C=CCn1cc(C[C@H]2C(=O)N(C)[C@@H](C[C@@H](C)CO)C(=O)N[C@@H](C)C(=O)N[C@@H]([C@H](OC)c3ccccc3)C(=O)N[C@@H](C(C)C)C(=O)N(C)[C@@H](CC(C)C)C(=O)N[C@@H](C(C)C)C(=O)N2C)c2ccccc21 [SI-60] (cyclo(A[Phe(βR-OMe)]V[NMeL]V[X5][NMeLeu(5-OH,4R)]))
- Microsomal Stability Rat QH ([1]; Rat): >87.900%
- Microsomal Stability Rat ([1]; clearance in microsomes): > 88 %Qh
- Hepatocyte Stability Rat QH ([2]; Rat): 57.215%
- Hepatocyte Rat ([2]; clearance in hepatocytes): 57 %Qh
- CACO permeability PEAB (Caco-2 monolayers; apical to basolateral): 35 ×10⁻⁶ cm/s
- CACO permeability PEBA (Caco-2 monolayers; basolateral to apical): 88 ×10⁻⁶ cm/s
- Permeability Correlation P (A-B) (Caco-2 monolayers; influence of Trp-Nα methylation on P(A-B), matched pair, listed under the methylated partner): 14.6
- Permeability Correlation Ratio (Caco-2 monolayers; influence of Trp-Nα methylation on efflux ratio, matched pair, listed under the methylated partner): 3.2
- Caco-2 Int. Perm (Caco-2 monolayers; mean value of P(A−B) and P(B−A)): 61.5 10-6 cm s-1
- efflux ratio (in vitro; Caco-2): 2.5
- Papp A→B (in vitro; Caco-2, CACO permeability PEAB, apical to basolateral): 46 ×10⁻⁶ cm/s
- Papp B→A (in vitro; Caco-2, CACO permeability PEBA, basolateral to apical): 49 ×10⁻⁶ cm/s
- Microsomal Stability Human QH ([3]; Human): >88.400%
- Microsomal Stability Human ([3]; clearance in microsomes): > 88 %Qh
- Hepatocyte Stability Human QH ([4]; Human): 50.176%
- Hepatocyte Human ([4]; clearance in hepatocytes): 50 %Qh
- Hepatocyte Stability Mouse QH ([5]; Mouse): 61.367%
- Hepatocyte Mice ([5]; clearance in hepatocytes): 61 %Qh
- Kd ([6]; SPR (Supplementary Table 1), read-out: KD ClpC1-NTD Mean ± SD): 8 ± 3 nM
- koff ClpC1-NTD ([6]; SPR, single independent measurements): 0.04 s⁻¹
- Kd ([6]; SPR, single independent measurements, read-out: KD ClpC1-NTD): 9.87 nM and 5.93 nM
- koff ([6]; SPR, single independent measurements, read-out: koff ClpC1-NTD): 0.03 s⁻¹

SMILES: [H]/N=C(/N)N[C@H]1[C@H](O)[C@@H](O)[C@H](O[C@@H]2O[C@@H](C)[C@](O)(C=O)[C@H]2O[C@@H]2O[C@@H](CO)[C@H](O)[C@@H](O)[C@@H]2NC)[C@@H](N/C(N)=N\[H])[C@@H]1O [Streptomycin]
- MIC (Mtb ATCC 35825; [7]): 27.5 µM and 16 µg/mL
- MIC (Mtb ATCC 35825; [8]): 16 µg/mL and 27.5 µM
- MIC (Mtb ATCC 35825; single well replicates): 27.51 µM (≈ 16 µg/mL)
- MIC Mtb ATCC 35825 (Mtb ATCC 35825; single well replicates): 16 µg/mL (≈ 27.5 µM)
- MIC (Mtb # 11291; [9]): 0.4 µM and 0.3 µg/mL
- MIC (Mtb # 11291; [10]): 0.43 µM and 0.25 µg/mL
- MIC Mtb # 11291 (Mtb # 11291; single well replicates): 0.25 µg/mL (≈ 0.43 µM)
- MIC (Mtb # 11291; single well replicates): 0.43 µM (≈ 0.25 µg/mL)
- MIC (Mtb # 8673; [9]): 6.9 µM and 4 µg/mL
- MIC (Mtb # 8673; [10]): 6.88 µM and 4 µg/mL
- MIC (Mtb # 8673; single well replicates): 6.88 µM (≈ 4 µg/mL)
- MIC Mtb # 8673 (Mtb # 8673; single well replicates): 4 µg/mL (≈ 6.88 µM)

SMILES: CC(=O)Nc1ccc(/C=N/NC(N)=S)cc1 [Thiacetazone]
- MIC (Mtb ATCC 35825; [7]): 4.2 µM and 1 µg/mL
- MIC (Mtb ATCC 35825; [8]): 1 µg/mL and 4.23 µM
- MIC (Mtb ATCC 35825; single well replicates): 4.23 µM (≈ 1 µg/mL)
- MIC Mtb ATCC 35825 (Mtb ATCC 35825; single well replicates): 1 µg/mL (≈ 4.23 µM)
- MIC (Mtb # 11291; [9]): 4.2 µM and 1 µg/mL
- MIC (Mtb # 11291; [10]): 4.23 µM and 1 µg/mL
- MIC Mtb # 11291 (Mtb # 11291; single well replicates): 1 µg/mL (≈ 4.23 µM)
- MIC (Mtb # 11291; single well replicates): 4.23 µM (≈ 1 µg/mL)
- MIC (Mtb # 8673; [9]): > 542 µM and > 128 µg/mL
- MIC (Mtb # 8673; [10]): > 542 µM and > 128 µg/mL
- MIC (Mtb # 8673; single well replicates): >541.68 µM
- MIC Mtb # 8673 (Mtb # 8673; single well replicates): >128 µg/mL
